Test results reported in patent US10259779B2 (WAYNE STATE UNIVERSITY, priority 2016, dated 2019).

Experiments:
[1] = tested on: HDAC proteins in HeLa cell lysates; assay: Global HDAC inhibition with HeLa cell lysates (HDAC-Glo I/II substrate); assay type: biochemical; conditions: Hela Lysate
Experimental: HDAC activity was measured using the commercially available HDAC-Glo™ I/II substrate (Promega).
Lysates were prepared according to the reported procedure.^28 HeLa-S3 cells (purchased from Biovest) were lysed in lysis buffer (1×10^9 cells in 10 mL lysis buffer; 50 mM Tris-HCl, pH 8.0, 10% glycerol, 150 mM NaCl, 0.5% Triton X-100, and 1× protease inhibitor cocktail (GenDEPOT)) with rotation at 4° C. for 30 min. Cell debris was removed by centrifugation at 12000 rpm at 4° C. for 30 min. Protein concentration of the supernatant was determined using Bio-Rad protein assay (BioRad, Bradford reagent). Lysates were stored at −80° C.
To measure global HDAC inhibition, HeLa cell lysates (1 μg total protein) were mixed with HDAC-Glo™ buffer in polystyrene 96-well half area white plate (Corning) to a final volume of 12 μL, followed by addition of inhibitors in DMSO (0.5 μL) and incubation for 15 min at room temperature without rocking. An uninhibited control reaction was also included that contained DMSO (0.5 μL). Finally, deacetylase activity was measured using the HDAC-Glo™ assay kit (Promega) as per the manufacturer's protocol. Specifically, the HDAC-Glo™ substrate (1 mL) and developer ([…]) were first premixed to form the HDAC-Glo™ reagents. Then, to monitor deacetylase activity, HDAC-Glo™ reagent (5 μL) and HDAC-Glo™ buffer (7.5 μL) were added to each well (25 μL total volume) and incubated for 35 min at room temperature without rocking. The deacetylase activity was measured as luminescent signal using a GeniosPlus Fluorimeter (Tecan) at optimal gain. The concentrations of inhibitors reported in the dose-dependent studies (Table 2) are final concentrations after addition of HDAC-Glo™ reagent HDAC-Glo™ buffer.

recombinant HDAC8 = molecular target: T1, recombinant HDAC8 (Homo sapiens, UniProt Q9BY41); assay: Recombinant HDAC8 inhibition (HDAC-Glo); assay type: biochemical; conditions: read-out: Deacetylase activity (%) HDAC8
T1 construct: purchased BPS Bioscience
T1 sequence (Q9BY41 1-377): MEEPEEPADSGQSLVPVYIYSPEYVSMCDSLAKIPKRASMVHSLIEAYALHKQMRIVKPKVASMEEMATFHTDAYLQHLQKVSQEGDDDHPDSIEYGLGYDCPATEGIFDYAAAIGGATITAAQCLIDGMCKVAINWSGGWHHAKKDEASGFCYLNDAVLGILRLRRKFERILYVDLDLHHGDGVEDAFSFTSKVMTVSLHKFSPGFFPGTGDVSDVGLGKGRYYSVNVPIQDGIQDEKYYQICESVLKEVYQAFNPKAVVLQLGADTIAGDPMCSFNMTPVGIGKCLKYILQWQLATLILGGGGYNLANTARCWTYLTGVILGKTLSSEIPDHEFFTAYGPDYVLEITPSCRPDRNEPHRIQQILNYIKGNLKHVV
Experimental: Inhibitory activity with HDAC8 was measured using the following procedure. In a half area 96-well white opaque plate, recombinant HDAC8 (75 ng, BPS Bioscience) was incubated in HDAC-Glo™ buffer (39 μL) with inhibitor in DMSO (1 μL), or DMSO alone (1 μL) as a control, for 15 minutes at room temperature. HDAC-Glo™ reagent (10 μL) was added to each reaction and incubated for 30 min at room temperature. Luminescent signal was measured 30 minutes after adding the substrate reagent using a Geniosplus Fluorimeter (Tecan) at optimal gain. To determine IC50, the luminescent signal was first background corrected with the signal from a background control reaction where no HDAC8 enzyme was added.

U937 cells = assay: In vitro cell growth inhibition, MTT assay, U937; assay type: cell-based; conditions: U937 cell line
in vitro = conditions: human, Jurkat cells (leukemia cell line)
HDAC1 [2] = molecular target: T2, HDAC1 (Homo sapiens, UniProt Q13547); assay: ELISA-based HDAC activity assay, HDAC1; conditions: read-out: Deacetylase activity (%) HDAC1
HDAC2 = HDAC2 (Homo sapiens, UniProt Q92769); assay: ELISA-based HDAC activity assay, HDAC2; conditions: read-out: Deacetylase activity (%) HDAC2
HDAC3 = HDAC3 (Homo sapiens, UniProt O15379); assay: ELISA-based HDAC activity assay, HDAC3; conditions: read-out: Deacetylase activity (%) HDAC3
HDAC6 [3] = molecular target: T3, HDAC6 (Homo sapiens, UniProt Q9UBN7); assay: ELISA-based HDAC activity assay, HDAC6; conditions: read-out: Deacetylase activity (%) HDAC6
T3 sequence (Q9UBN7 1-1215): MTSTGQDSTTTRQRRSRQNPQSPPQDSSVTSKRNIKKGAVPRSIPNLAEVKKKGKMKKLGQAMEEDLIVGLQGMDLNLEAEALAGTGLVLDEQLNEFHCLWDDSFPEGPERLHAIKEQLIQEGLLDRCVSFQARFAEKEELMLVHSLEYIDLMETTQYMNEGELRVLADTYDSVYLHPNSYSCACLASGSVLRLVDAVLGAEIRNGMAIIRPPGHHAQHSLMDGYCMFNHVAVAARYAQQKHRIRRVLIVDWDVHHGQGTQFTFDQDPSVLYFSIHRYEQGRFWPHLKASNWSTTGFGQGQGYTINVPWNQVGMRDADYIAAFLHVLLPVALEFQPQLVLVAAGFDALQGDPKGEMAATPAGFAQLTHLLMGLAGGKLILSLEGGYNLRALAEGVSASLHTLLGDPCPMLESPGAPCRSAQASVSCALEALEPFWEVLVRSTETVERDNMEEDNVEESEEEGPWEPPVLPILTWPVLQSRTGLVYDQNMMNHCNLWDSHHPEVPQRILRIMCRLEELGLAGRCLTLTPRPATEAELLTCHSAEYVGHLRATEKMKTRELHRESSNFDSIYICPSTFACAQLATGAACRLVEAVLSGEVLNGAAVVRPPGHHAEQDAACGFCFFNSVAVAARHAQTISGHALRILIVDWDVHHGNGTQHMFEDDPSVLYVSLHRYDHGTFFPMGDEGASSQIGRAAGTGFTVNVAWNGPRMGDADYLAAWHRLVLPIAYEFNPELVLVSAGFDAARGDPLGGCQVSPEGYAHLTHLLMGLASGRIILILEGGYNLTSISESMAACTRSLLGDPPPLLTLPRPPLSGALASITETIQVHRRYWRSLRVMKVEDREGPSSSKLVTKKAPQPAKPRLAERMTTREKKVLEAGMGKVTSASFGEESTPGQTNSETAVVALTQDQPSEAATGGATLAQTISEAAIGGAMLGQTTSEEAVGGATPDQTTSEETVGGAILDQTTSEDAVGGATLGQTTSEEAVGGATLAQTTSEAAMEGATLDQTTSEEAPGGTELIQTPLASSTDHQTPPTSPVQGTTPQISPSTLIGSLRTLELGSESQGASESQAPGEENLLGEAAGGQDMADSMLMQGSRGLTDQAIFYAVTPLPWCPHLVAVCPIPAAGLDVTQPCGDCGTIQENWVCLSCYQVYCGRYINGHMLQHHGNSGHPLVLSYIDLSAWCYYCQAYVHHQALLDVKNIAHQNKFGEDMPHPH

[4] = tested on: acetyl-α-tubulin (HDAC6 substrate) in U937 cells; assay: In cellulo selectivity testing, western blot of acetyl-α-tubulin; assay type: cell-based; conditions: 18 hours, SAHA 5 μM, 1f 20-60 μM, compared to DMSO control
[5] = tested on: acetyl-histone H3 (HDAC1, 2, 3 substrate) in U937 cells; assay: In cellulo selectivity testing, western blot of acetyl-histone H3; assay type: cell-based; conditions: 18 hours, SAHA 5 μM
HDAC1 [6] = molecular target: T2, HDAC1; conditions: single concentration 1 μM; cited from earlier work
HDAC6 [7] = molecular target: T3, HDAC6; conditions: single concentration 1 μM; cited from earlier work
HDAC6 [8] = molecular target: T3, HDAC6; conditions: literature ref 55; cited from earlier work

Chain of HDAC3 (O15379 whole entry): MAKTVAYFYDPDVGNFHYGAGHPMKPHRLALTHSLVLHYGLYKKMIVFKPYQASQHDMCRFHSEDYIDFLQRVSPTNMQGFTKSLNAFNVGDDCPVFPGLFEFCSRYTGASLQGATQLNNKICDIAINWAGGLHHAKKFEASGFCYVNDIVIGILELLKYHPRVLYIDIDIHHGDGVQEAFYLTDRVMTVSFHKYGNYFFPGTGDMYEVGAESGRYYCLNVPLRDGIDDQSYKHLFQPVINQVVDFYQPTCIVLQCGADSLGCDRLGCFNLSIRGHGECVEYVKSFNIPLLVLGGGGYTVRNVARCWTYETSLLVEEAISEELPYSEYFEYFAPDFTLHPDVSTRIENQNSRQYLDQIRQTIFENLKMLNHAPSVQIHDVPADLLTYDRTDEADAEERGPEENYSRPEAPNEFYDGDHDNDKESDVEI
Chain of HDAC3 (Q9Y618 whole entry partner): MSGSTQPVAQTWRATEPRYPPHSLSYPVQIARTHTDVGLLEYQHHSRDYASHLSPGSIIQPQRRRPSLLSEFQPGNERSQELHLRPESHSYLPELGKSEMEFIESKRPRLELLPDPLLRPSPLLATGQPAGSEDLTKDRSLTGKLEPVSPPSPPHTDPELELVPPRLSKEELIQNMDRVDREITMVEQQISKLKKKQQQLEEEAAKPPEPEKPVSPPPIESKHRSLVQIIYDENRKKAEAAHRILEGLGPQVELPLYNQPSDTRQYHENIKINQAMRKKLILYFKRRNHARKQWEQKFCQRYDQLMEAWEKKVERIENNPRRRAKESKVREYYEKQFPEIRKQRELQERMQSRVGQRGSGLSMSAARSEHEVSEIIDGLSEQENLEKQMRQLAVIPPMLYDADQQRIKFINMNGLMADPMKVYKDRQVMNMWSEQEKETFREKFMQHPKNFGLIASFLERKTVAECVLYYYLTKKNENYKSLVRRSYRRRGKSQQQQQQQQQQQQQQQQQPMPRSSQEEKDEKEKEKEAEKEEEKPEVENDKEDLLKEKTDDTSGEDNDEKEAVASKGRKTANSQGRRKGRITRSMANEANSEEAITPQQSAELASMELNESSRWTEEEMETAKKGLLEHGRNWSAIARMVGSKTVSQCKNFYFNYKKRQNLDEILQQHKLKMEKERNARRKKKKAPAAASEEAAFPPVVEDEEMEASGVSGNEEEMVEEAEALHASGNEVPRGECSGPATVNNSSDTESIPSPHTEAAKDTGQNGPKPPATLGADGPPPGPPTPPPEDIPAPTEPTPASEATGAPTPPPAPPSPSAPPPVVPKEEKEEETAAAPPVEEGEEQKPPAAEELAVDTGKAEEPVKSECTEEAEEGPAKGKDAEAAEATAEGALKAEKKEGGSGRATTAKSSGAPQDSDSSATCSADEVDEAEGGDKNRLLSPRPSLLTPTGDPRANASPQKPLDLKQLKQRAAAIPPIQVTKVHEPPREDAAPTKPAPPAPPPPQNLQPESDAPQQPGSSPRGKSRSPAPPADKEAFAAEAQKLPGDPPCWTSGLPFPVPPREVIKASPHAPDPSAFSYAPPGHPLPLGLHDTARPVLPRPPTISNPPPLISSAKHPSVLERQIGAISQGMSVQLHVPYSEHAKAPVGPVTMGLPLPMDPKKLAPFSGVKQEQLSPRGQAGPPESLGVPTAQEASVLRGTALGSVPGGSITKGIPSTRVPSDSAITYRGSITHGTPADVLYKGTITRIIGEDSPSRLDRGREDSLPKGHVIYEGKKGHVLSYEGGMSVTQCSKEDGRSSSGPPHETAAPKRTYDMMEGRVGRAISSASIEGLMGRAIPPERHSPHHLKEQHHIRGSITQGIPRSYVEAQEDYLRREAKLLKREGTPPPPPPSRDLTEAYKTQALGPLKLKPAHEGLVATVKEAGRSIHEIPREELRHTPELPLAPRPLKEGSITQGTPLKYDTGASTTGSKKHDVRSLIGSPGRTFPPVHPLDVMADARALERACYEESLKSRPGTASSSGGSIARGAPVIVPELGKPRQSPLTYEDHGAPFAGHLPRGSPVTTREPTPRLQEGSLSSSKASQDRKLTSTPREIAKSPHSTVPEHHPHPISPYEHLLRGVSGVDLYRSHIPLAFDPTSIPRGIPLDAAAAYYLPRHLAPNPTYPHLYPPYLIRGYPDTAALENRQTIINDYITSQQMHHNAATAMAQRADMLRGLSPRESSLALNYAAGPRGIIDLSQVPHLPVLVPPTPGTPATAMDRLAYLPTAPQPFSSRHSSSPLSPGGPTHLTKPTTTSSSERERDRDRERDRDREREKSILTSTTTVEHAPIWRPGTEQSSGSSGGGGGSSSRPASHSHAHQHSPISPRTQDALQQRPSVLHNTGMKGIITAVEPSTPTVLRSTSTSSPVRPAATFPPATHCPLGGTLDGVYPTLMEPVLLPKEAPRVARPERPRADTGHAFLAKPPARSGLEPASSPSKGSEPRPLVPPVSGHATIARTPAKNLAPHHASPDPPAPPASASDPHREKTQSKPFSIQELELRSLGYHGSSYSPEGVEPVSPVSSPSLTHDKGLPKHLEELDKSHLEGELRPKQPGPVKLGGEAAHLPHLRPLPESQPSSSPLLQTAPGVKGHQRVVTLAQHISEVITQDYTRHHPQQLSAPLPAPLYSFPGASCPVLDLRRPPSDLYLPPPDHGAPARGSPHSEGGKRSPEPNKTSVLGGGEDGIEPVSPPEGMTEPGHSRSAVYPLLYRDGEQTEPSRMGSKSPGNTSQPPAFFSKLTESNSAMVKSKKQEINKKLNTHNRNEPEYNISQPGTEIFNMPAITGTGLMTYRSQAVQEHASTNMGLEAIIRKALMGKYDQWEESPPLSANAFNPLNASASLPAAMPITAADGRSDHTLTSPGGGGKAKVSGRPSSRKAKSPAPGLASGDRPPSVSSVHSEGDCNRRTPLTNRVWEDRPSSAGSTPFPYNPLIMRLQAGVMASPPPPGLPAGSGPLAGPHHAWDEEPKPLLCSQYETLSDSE
Chain of HDAC2 (Q92769 whole entry): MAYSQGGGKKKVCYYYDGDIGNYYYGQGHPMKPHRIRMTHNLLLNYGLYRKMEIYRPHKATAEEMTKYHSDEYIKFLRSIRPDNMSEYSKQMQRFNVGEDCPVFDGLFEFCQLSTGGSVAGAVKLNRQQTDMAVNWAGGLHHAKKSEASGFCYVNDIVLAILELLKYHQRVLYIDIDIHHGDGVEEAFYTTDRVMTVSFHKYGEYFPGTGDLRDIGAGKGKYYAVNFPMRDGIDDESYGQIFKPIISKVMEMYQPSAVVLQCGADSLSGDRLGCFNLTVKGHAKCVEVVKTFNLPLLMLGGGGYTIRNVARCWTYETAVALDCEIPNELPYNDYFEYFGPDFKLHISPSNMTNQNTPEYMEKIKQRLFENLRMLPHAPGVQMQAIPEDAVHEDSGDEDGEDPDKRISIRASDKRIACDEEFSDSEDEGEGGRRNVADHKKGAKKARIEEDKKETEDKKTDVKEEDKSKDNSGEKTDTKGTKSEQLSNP
T2 sequence (Q13547 whole entry): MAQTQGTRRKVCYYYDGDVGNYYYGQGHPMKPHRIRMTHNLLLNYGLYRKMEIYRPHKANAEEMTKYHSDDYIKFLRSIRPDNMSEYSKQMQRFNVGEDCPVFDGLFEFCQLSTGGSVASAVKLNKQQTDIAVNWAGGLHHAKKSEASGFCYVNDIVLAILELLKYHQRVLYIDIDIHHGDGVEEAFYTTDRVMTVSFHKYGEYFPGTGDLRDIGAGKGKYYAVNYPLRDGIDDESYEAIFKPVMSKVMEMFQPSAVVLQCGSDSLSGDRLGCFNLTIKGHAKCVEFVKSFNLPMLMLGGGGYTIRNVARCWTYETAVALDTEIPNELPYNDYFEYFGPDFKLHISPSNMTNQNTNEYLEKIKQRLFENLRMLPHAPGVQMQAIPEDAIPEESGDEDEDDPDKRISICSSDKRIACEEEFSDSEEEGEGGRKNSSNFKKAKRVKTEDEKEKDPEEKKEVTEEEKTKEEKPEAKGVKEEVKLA

For `CCCCC(CCCC(=O)Nc1ccccc1)CCC(=O)NO` (racemic) [Compound 1c, 4-butyl-N^1-hydroxy-N^8-phenyloctanediamide], the “Deacetylase activity (%)” value ([1]; 3.0 × 10^−5 M) was 69 ± 2%, the “Deacetylase activity (%)” value ([1]; 6.0 × 10^−5 M) was 44 ± 4% and the “Deacetylase activity (%)” value ([1]; […] 10^−4 M) was 24 ± 1%. The “Deacetylase activity (%)” value ([1]; […] 10^−5 M) was 88 ± 1%, the “Deacetylase activity (%)” value ([1]; […] 10^−6 M) was 97 ± 2% and the activity at 0.1 µM (recombinant HDAC8; 1.0 × 10^−7 M) was 41 ± 5%. The activity at 0.0125 µM (recombinant HDAC8; 1.25 × 10^−8 M) was 84 ± 1%, the activity at 0.2 µM (recombinant HDAC8; 2.0 × 10^−7 M) was 28 ± 4% and the activity at […] (recombinant HDAC8; 2.5 × 10^−8 M) was 74 ± 3%. The activity at 0.05 µM (recombinant HDAC8; 5.0 × 10^−8 M) was 61 ± 7%, the EC50 (U937 cells) was 34 µM and the viability at 44 h, 1 µM (in vitro) was 98 ± 6%. The viability at 44 h, 10 µM (in vitro) was 62 ± 16%, the activity at 3.5 µM (HDAC1 [2]) was 81 ± 1% and the activity at 7 µM (HDAC1 [2]) was 67 ± 2%. The activity at 14 µM (HDAC1 [2]) was 53 ± 3%, the activity at 28 µM (HDAC1 [2]) was 35 ± 1% and the activity at 56 µM (HDAC1 [2]) was 19 ± 1%. The activity at 3.5 µM (HDAC2) was 81 ± 5%, the activity at 7 µM (HDAC2) was 71 ± 2% and the activity at 14 µM (HDAC2) was 57 ± 1%. It also gave an activity at 28 µM (HDAC2) of 43 ± 2%, an activity at 56 µM (HDAC2) of 18 ± 10% and an activity at […] (HDAC2) of 87 ± 1%. It also gave an activity at 3.5 µM (HDAC3) of 79 ± 3%, an activity at 7 µM (HDAC3) of 79 ± 3% and an activity at 14 µM (HDAC3) of 64 ± 2%. It also gave an activity at 28 µM (HDAC3) of 48 ± 5%, an activity at 56 µM (HDAC3) of 25 ± 5% and an activity at 0.05 µM (HDAC6 [3]) of 61 ± 6%. For the same molecule, the activity at 0.1 µM (HDAC6 [3]) was 46 ± 9%, the activity at 0.2 µM (HDAC6 [3]) was 39 ± 5% and the activity at 0.4 µM (HDAC6 [3]) was 23 ± 3%. The activity at […] (HDAC6 [3]) was 70 ± 6%.

In the case of `O=C(CCCCCCC(=O)Nc1ccccc1)NO` [SAHA, suberoylamide hydroxamic acid], the “levels of acetyl-α-tubulin (AcTub), western blot” value [4] is listed as “increases levels”, the “levels of acetyl-histone H3 (AcH3), western blot” value [5] is listed as “increases levels” and the “Deacetylase activity (%) HDAC1” value (HDAC1 [6]) is listed as 8.9 ± 0.1%. For the same molecule, the “Deacetylase activity (%) HDAC6” value (HDAC6 [7]) was 7.9 ± 1.6% and the viability at 44 h, 10 µM (in vitro) was 5 ± 3%.

For `CCCC(CCC)C(=O)NO` [Valpropylhydroxamic acid], the “fold selectivity for HDAC6 and 8 against HDAC1, 2, and 3 (reported)” value (HDAC6 [8]) is listed as 9-17 fold.
